Columns and labels:
[1] = system: mitochondria-derived ROS; experiment: MitoSOX assay; assay type: cell-based; conditions: Figure 10C
Protocol: (§1) Thus, the ability of compound 7 to disturb redox homeostasis in TMZ-resistant cells and attain amplified therapeutic efficacy for GBM was evaluated. In both Pt3 and Pt3R cells, treatment with compound 7 for 48 h increased the ROS level (Figure 10A). […] Moreover, it was also observed that compound 7 increased mitochondria-derived ROS.
Figure 10 Compound 7 triggers ROS production from mitochondria. (A) After treatment for 48 h, cells were stained with the DHR reagent, and the fluorescent signal was estimated by flow cytometry. Treatment concentration of compound 7 was indicated. (B) Protein lysates were subjected to Western blotting using the indicated antibody. (C) After staining with MitoSOX (red) and Hoechst 33342 (blue), cellular signals were photographed and quantified D. Protein lysates were subjected to Western blotting using the indicated antibody.
Dihydrorhodamine 123 (DHR; Thermo Fisher Scientific, Waltham, MA) was used to label cellular ROS detected by the flow cytometry,[54] and the MitoSOX reagent (Thermo Fisher Scientific) was used to label mitochondrial ROS.[55]

[2] = system: blood–brain barrier (BBB); experiment: BBB permeability (chamber coated with endothelial cells and astrocytes, MTT of Pt#3-R in lower chamber); assay type: in vitro ADME; conditions: upper chamber, 72 h; 0, 1, 5, 10 (mM printed); viability of Pt#3-R in lower chamber by MTT
Protocol: Fig. S1 Compound 7 was added in the upper chamber coated with endothelial cells and astrocytes, and incubated
for 72 h. Subsequently, the viability of Pt#3-R in the lower chamber was analyzed by the MTT assay. As shown […]

[3] = system: Pt3R cells; experiment: Western blotting; assay type: cell-based, human
Protocol: Furthermore, the impact of compound 7 treatment on centromere proteins (CENPs) was assessed. As such, CENPs are the main constituent proteins of the kinetochore, which are essential for cell division. CENPs expression is elevated in GBM tissues and correlated with unfavorable overall survival in glioma patients.[53]
as §1
The detailed procedure was described in our previous study.[54],[55],[58],[59] Primary antibodies, anti-CENPA, anti-CENPE, anti-CENPF, and anti-CENPI antibodies, were purchased from abcam (Cambridge, U.K.); anti-CDK1 and anticyclin B1 antibodies were purchased from Santa Cruz Biotechnology, Inc. (Dallas, TX); and anti-EZH2 and anti-H3K27^me3 antibodies were purchased from GeneTex International Corporation (HsinChu, Taiwan), anti-Caspase-3 was purchased from GeneTex International Corporation; anti-cleaved Caspase-3 was purchased from Cell Signaling Technology (Danvers, Massachusetts).

[4] = system: Pt3R cells; experiment: Cell cycle analysis (PI staining, flow cytometry); assay type: cell-based, human; conditions: 24 h treatment (Figure 8E)
Protocol: Figure 8 Compound 7 suppresses gene expression of CENP family. (A) Compound 7-suppressed CENP family. (B) Gene expression of CENP family in Pt3 and TMZ-resistant Pt3R cells. (C) Prognostic value was analyzed using the GlioVis Web site. (D) Western blotting was used to confirm that compound 7 decreased CENPs expression. (E) Cell cycle analysis. After treatment for 24 h, cells were stained with propidium iodide (PI) and subjected to flow cytometry analysis.

[5] = target: HSP90a (Homo sapiens, UniProt P07900); experiment: In vitro Hsp90 assay (Reaction Biology Corp.); assay type: biochemical; conditions: 10-dose IC50 mode, 3-fold serial dilution starting at 10 μM, single experiment; '-' read as no inhibition
Protocol: The HSP90 inhibitory activity of the synthesized adduct was assessed by Reaction Biology Corporation Malvern, PA. (http://www.reactionbiology.com).

[6] = target: EZH2 (Homo sapiens, UniProt Q15910); experiment: EZH2 inhibition assay (Reaction Biology Corp.); assay type: biochemical; conditions: 10-dose IC50 mode, 3-fold serial dilution starting at 10 μM, single experiment
Chain of EZH2 (Q15910 whole entry): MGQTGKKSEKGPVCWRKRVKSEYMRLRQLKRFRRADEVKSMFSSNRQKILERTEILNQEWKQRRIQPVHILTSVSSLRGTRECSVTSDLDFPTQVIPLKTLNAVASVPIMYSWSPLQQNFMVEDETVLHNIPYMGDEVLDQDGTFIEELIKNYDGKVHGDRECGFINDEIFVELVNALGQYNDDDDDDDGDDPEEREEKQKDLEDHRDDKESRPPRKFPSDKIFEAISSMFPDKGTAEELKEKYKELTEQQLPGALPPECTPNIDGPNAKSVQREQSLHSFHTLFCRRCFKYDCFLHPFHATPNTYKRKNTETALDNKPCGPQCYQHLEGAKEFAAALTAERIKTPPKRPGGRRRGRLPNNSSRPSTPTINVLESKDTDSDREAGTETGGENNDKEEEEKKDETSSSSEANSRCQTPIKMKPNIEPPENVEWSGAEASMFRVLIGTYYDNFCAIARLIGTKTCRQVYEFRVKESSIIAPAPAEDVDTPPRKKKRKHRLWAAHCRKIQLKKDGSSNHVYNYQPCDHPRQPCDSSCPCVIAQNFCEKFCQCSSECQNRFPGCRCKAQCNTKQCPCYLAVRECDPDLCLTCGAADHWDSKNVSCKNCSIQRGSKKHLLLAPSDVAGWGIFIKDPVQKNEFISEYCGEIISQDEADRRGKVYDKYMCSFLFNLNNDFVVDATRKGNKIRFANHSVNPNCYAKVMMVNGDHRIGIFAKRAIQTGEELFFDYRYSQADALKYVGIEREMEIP
Chain of EZH2 (O75530 whole entry partner): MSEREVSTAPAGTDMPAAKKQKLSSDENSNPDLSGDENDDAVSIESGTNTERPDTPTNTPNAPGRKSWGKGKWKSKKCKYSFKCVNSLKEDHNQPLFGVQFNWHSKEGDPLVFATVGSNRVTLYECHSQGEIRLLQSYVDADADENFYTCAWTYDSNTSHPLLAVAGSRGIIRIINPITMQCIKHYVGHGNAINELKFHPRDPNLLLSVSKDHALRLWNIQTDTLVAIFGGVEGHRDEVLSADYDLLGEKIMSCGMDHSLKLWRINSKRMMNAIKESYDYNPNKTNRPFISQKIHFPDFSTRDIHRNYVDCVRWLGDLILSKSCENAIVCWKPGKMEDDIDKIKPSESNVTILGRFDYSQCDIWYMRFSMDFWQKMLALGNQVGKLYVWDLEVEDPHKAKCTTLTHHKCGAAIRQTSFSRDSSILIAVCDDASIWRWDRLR
Chain of EZH2 (Q15022 whole entry partner): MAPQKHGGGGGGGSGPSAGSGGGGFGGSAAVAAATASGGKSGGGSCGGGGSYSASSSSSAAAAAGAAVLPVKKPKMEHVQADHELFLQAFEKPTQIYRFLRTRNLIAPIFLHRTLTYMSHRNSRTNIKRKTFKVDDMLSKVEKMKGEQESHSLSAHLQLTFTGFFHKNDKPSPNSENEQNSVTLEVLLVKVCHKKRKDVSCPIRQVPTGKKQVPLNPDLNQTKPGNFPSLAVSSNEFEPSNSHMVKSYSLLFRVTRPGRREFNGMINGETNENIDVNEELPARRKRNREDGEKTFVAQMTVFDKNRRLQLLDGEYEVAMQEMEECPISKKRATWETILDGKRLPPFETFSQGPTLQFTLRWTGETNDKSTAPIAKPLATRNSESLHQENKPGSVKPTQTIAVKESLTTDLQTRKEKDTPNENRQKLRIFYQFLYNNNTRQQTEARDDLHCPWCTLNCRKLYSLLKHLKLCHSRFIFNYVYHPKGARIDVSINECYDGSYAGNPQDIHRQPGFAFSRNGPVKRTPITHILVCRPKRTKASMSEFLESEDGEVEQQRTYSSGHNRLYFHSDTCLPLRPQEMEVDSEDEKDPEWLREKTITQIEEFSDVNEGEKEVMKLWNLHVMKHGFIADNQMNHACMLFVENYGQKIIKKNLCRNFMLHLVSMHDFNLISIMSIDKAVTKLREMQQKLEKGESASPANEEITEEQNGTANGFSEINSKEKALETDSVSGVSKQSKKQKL
Chain of EZH2 (Q09028 whole entry partner): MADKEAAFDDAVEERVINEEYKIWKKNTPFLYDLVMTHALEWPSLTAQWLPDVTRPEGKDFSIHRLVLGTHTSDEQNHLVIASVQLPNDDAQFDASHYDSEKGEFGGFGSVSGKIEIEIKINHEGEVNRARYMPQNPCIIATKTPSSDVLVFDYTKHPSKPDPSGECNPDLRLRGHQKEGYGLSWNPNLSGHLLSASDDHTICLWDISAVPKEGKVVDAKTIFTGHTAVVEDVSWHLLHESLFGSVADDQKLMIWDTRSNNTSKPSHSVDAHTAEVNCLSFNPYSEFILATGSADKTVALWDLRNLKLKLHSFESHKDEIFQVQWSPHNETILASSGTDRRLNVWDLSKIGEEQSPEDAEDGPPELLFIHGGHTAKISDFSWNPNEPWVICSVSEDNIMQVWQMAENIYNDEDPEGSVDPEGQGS
Chain of EZH2 (Q6ZN18 whole entry partner): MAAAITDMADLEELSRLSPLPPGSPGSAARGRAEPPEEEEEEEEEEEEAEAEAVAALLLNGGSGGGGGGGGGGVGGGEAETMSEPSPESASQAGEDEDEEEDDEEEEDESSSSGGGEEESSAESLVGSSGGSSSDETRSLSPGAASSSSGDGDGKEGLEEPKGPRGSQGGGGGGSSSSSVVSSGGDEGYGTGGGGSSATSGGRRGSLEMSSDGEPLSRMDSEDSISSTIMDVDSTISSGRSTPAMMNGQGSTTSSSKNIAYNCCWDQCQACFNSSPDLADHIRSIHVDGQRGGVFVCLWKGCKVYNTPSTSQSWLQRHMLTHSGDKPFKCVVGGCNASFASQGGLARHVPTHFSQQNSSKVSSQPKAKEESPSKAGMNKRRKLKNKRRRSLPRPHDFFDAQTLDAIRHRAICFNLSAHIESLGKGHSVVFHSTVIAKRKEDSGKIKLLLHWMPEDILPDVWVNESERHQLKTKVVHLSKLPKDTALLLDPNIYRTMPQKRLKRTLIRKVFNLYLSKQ
Protocol: The EZH2 inhibitory ability of the synthesized adduct was assessed by Reaction Biology Corporation Malvern, PA. (http://www.reactionbiology.com).

CCN(c1cc(-c2cccc(N(C)C(=O)c3cc(C(C)C)c(O)cc3O)c2)cc(C(=O)NCc2c(C)cc(C)[nH]c2=O)c1C)C1CCOCC1 [Compound 7, 3′-(2,4-Dihydroxy-5-isopropyl-N-methylbenzamido)-N-((4,6-dimethyl-2-oxo-1,2-dihydropyridin-3-yl)methyl)-5-(ethyl(tetrahydro-2H-pyran-4-yl)amino)-4-methyl-[1,1′-biphenyl]-3-carboxamide]
MitoSOX red signal representing ROS produced from mitochondria [1]: remarkably enhanced
BBB penetration [2]: able to penetrate blood–brain barrier (BBB)
EZH2 expression and EZH2-modulated H3K27 trimethylation ([3]; Figure 10B): inhibited
proteins involved in cleaning ROS (catalase, SOD1, glutathione reductase, GPX1) ([3]; Figure 10B): decreased
expression of cleaved caspase-3 ([3]; Figure 10D): upregulate
CENPs protein expression ([3]; Pt3R (Figure 8D)): decreased
expression of CDK1 and cyclin B1 ([3]; Pt3R (Figure 8D)): downregulated
cell cycle [4]: induced cell cycle arrest at the M phase
IC50 [5]: 0.0601 µM
IC50 [6]: 0.00629 µM

Source: publication PMC10895674, “First-in-Class Dual EZH2-HSP90 Inhibitor Eliciting Striking Antiglioblastoma Activity In Vitro and In Vivo” (Journal of Medicinal Chemistry, 2024)
